# From ChEMBL document CHEMBL3431459, “Roche carnitine palmitoyltransferase modulator screening data (supplementary data associated with the publication CHEMBL2216752)”
# Columns and labels:
# [1] = SUPPLEMENTARY: Lyophilisation Solubility Assay (LYSA); format: physicochemical; settings: read-out: Kinetic_solubility
# [2] = target: T1, Carnitine O-palmitoyltransferase 2, mitochondrial (Rattus norvegicus, UniProt P18886); assay: (§1) SUPPLEMENTARY: Inhibition of Carnitine palmitoyltransferase 2
# T1 sequence (P18886 whole entry): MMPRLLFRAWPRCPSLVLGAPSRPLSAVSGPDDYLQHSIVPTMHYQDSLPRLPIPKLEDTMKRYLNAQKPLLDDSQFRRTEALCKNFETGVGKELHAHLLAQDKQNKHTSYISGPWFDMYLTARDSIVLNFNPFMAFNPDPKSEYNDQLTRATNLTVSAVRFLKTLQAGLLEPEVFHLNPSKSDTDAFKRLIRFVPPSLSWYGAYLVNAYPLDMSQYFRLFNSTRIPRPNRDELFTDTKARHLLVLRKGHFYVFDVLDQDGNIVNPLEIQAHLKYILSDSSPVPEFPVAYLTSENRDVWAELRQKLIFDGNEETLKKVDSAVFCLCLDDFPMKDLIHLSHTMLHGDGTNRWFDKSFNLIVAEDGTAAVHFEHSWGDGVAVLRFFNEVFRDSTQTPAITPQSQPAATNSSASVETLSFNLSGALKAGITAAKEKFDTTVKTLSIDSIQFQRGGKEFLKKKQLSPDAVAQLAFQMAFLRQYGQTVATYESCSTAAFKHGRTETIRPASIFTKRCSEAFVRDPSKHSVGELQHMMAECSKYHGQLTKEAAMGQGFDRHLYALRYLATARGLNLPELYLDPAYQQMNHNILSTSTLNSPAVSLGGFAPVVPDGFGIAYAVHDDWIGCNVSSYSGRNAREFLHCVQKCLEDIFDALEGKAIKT
# [3] = target: T2, Carnitine O-palmitoyltransferase 2, mitochondrial (Homo sapiens, UniProt P23786); assay: as §1
# T2 sequence (P23786 whole entry): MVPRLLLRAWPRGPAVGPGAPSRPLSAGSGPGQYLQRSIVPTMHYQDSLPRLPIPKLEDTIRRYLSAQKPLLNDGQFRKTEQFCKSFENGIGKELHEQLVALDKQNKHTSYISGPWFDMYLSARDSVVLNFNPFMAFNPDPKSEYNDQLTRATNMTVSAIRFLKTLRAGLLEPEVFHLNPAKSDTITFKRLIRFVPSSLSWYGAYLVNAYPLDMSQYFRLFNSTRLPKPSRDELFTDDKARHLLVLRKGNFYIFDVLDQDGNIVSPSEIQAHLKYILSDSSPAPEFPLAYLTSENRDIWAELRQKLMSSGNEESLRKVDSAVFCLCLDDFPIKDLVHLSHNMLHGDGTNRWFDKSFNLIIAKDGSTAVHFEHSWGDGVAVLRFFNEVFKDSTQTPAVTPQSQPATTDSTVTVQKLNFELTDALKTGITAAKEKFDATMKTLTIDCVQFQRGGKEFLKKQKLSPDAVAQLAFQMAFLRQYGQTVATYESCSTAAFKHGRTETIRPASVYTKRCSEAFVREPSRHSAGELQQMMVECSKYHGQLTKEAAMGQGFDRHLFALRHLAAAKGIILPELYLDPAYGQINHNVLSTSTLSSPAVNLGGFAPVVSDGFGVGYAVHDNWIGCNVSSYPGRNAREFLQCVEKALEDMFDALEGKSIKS
# [4] = target: T3, Carnitine O-palmitoyltransferase 1, muscle isoform (Homo sapiens, UniProt Q92523); assay: SUPPLEMENTARY: Inhibition of Carnitine palmitoyltransferase 1, muscle isoform; set-up: species or system Muscle tissue
# T3 sequence (Q92523 whole entry): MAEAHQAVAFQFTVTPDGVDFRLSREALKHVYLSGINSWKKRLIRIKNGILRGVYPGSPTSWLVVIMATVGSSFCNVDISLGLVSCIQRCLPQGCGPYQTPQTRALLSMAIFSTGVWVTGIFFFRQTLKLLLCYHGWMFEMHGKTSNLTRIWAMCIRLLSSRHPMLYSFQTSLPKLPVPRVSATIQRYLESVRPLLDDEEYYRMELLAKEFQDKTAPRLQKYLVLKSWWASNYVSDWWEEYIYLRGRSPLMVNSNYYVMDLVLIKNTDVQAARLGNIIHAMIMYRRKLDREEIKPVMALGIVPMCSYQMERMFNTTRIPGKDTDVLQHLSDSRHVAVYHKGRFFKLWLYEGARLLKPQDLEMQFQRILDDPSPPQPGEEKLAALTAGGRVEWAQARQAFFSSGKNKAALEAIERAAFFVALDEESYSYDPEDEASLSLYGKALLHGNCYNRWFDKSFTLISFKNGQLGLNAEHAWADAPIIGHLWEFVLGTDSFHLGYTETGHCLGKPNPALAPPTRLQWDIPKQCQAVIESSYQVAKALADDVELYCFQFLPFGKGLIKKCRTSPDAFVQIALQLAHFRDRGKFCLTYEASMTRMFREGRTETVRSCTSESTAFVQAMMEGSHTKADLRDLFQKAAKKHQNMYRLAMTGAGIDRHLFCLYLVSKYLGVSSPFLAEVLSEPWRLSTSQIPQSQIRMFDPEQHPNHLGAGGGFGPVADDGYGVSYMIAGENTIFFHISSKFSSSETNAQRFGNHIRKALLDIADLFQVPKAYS
# [5] = target: T4, Carnitine O-palmitoyltransferase 1, liver isoform (Rattus norvegicus, UniProt P32198); assay: (§2) SUPPLEMENTARY: Inhibition of Carnitine palmitoyltransferase 1, liver isoform
# T4 sequence (P32198 whole entry): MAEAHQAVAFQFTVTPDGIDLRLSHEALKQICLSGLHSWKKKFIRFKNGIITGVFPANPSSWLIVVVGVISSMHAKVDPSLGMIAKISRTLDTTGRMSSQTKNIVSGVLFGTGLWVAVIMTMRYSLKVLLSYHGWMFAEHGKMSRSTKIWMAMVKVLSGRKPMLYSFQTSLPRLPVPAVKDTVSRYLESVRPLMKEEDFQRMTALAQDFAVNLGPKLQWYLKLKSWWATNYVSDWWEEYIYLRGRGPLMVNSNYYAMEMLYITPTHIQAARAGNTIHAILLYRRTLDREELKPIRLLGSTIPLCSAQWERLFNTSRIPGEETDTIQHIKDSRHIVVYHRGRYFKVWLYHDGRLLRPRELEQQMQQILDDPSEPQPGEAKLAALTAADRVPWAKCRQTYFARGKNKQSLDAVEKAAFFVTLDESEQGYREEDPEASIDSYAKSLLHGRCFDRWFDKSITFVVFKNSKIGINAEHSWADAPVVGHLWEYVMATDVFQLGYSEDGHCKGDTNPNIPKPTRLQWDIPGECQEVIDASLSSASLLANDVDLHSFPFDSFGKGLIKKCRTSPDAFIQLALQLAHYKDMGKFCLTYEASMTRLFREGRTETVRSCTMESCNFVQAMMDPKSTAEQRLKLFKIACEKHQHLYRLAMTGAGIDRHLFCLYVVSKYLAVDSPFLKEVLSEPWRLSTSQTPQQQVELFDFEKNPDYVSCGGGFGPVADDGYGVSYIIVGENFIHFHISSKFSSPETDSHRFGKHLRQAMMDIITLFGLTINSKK
# [6] = target: T5, Carnitine O-palmitoyltransferase 1, liver isoform (Homo sapiens, UniProt P50416); assay: as §2
# T5 sequence (P50416 whole entry): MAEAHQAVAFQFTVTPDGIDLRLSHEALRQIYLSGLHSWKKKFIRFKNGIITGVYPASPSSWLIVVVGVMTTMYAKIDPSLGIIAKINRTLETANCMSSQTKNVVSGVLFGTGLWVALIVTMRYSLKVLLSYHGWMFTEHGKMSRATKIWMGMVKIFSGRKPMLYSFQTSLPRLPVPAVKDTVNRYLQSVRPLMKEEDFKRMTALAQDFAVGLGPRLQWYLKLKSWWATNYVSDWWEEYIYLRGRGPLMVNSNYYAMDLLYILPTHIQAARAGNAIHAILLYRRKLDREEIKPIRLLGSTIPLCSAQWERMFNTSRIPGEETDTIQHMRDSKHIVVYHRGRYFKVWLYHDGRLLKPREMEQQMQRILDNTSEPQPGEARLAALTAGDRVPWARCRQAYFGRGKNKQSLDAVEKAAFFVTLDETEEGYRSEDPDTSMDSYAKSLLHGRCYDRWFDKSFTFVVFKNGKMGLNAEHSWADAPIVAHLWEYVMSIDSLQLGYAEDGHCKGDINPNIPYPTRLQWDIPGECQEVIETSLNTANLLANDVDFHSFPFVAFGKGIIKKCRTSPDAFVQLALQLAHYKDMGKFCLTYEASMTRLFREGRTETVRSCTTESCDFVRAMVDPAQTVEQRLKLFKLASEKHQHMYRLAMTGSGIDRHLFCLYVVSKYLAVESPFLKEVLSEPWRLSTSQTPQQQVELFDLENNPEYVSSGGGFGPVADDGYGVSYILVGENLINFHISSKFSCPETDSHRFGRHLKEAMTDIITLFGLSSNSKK
# [7] = SUPPLEMENTARY: Lipophilicity (log D) Determination by high-throughput shake-flask; format: physicochemical; settings: octanol/water
# [8] = SUPPLEMENTARY: PAMPA permeability assay; format: physicochemical; settings: read-out: Permeability
solubility kinetic [1],IC50 [2],IC50 [3],IC50 [4],IC50 [5],IC50 [6],logD [7],Papp [8],Compound
> 557 µg/mL,> 100000 nM,> 100000 nM,11100 nM,7.2 nM,36.1 nM,-0.23,–,COc1ccc(Cl)cc1S(=O)(=O)c1cn(CC(=O)O)c2ccc(C(=O)Nc3ccccc3)cc12
25 µg/mL,> 100000 nM,> 100000 nM,674 nM,14.5 nM,18.6 nM,0.35,–,COc1ccc(Cl)cc1S(=O)(=O)Nc1cccc(C(=O)Nc2ccc(-c3nnn[nH]3)cc2)c1
< 1 µg/mL,> 100000 nM,> 100000 nM,> 100000 nM,29.2 nM,84.5 nM,> 3,–,COc1ccc(Cl)cc1S(=O)(=O)c1nn(C)c2ccc(C(=O)Nc3ccccc3)cc12
11 µg/mL,22500 nM,11500 nM,4070 nM,69.5 nM,102 nM,2.84,–,O=C(Nc1ccc(C(=O)O)c(F)c1)c1ccc2c(c1)N(S(=O)(=O)c1ccc(Cl)c(Cl)c1)CC2
456 µg/mL,> 100000 nM,> 100000 nM,259 nM,225 nM,220 nM,-0.86,–,COc1ccc(Cl)cc1S(=O)(=O)N1CC[S+]([O-])c2ccc(C(=O)Nc3ccc(CC(=O)O)cc3)cc21 (configuration not stated)
23 µg/mL,5120 nM,1960 nM,528 nM,20.3 nM,17.5 nM,0.84,–,COc1ccc(Cl)cc1S(=O)(=O)c1c[nH]c2ccc(C(=O)Nc3ccc(C(=O)O)cc3)cc12

# The next lines start with the compound.
Compound,solubility kinetic [1],IC50 [2],IC50 [3],IC50 [4],IC50 [5],IC50 [6],logD [7],Papp [8]
O=C(COc1ccccc1)N1CCCC[C@@H]1c1nc(-c2ccc(Cl)nc2)cs1,1 µg/mL,> 100000 nM,62100 nM,> 100000 nM,305 nM,–,> 3,1.25 ×10⁻⁶ cm/s
COc1ccc(Cl)cc1S(=O)(=O)c1c[nH]c2ccc(C(=O)Nc3nc(CC(=O)O)cs3)cc12,66 µg/mL,> 100000 nM,> 100000 nM,202 nM,18.9 nM,39.3 nM,-0.02,–
O=C(COc1ccccc1)N1CCCC[C@@H]1c1nc(-c2ccccn2)cs1,24 µg/mL,–,–,> 100000 nM,128 nM,–,3.37,9.04 ×10⁻⁶ cm/s
COc1ccc(Cl)cc1S(=O)(=O)c1cn(CSC)c2ccc(C(=O)Nc3ccccc3)cc12,< 1 µg/mL,> 100000 nM,> 100000 nM,> 100000 nM,25.2 nM,188 nM,> 3,–
COc1ccc(Cl)cc1S(=O)(=O)c1c[nH]c2ccc(C(=O)Nc3ccc(CC(=O)O)cc3)cc12,41 µg/mL,> 100000 nM,> 100000 nM,235 nM,23.4 nM,21.9 nM,0.17,–
COc1ccc(Cl)cc1S(=O)(=O)N1CCCc2ccc(Oc3ccc(CC(=O)O)cc3)cc21,–,> 100000 nM,> 100000 nM,145 nM,–,550 nM,1.79,0.77 ×10⁻⁶ cm/s
COc1ccc(Cl)cc1S(=O)(=O)c1nn(CC(=O)O)c2ccc(C(=O)Nc3ccccc3)cc12,374 µg/mL,> 100000 nM,> 100000 nM,39300 nM,24.4 nM,38.4 nM,0.31,–
O=C(COc1ccccc1)N1CCCC[C@@H]1c1csc(-c2n[nH]c3ccccc23)n1,< 1 µg/mL,56400 nM,6230 nM,77300 nM,129 nM,–,> 3,–
COc1ccc(Cl)cc1-c1csc([C@H]2CCCCN2C(=O)COc2ccccc2)n1,< 1 µg/mL,> 100000 nM,> 100000 nM,> 100000 nM,761 nM,–,> 4,–
COc1ccc(Cl)cc1S(=O)(=O)c1cn(CS(C)(=O)=O)c2ccc(C(=O)Nc3ccccc3)cc12,< 1 µg/mL,> 100000 nM,> 100000 nM,> 100000 nM,61 nM,111 nM,> 3,–
